Results as given in PubChem BioAssay (NCI).
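The concentration for 50% growth inhibition is given as GI50. TGI denotes the concentration required for complete inhibition of growth.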

How the values were obtained:
Experiment in all cases: NCI tumour cell line growth inhibition, 384-well format
NCI-H226 lung = system: NCI-H226 lung
A498 renal = system: A498 renal
MCF7 breast = system: MCF7 breast
HT29 colon = system: HT29 colon
NCI-H522 lung = system: NCI-H522 lung
SR leukemia = system: SR leukemia
SK-MEL-5 melanoma = system: SK-MEL-5 melanoma
DU-145 prostate = system: DU-145 prostate
SK-OV-3 ovarian = system: SK-OV-3 ovarian
SK-MEL-2 melanoma = system: SK-MEL-2 melanoma
SNB-75 CNS = system: SNB-75 CNS
KM12 colon = system: KM12 colon
UACC-62 melanoma = system: UACC-62 melanoma
HCT-116 colon = system: HCT-116 colon
HS 578T breast = system: HS 578T breast
OVCAR-4 ovarian = system: OVCAR-4 ovarian
LOX IMVI melanoma = system: LOX IMVI melanoma
CAKI-1 renal = system: CAKI-1 renal
SF-268 CNS = system: SF-268 CNS
COLO 205 colon = system: COLO 205 colon
SW-620 colon = system: SW-620 colon
SF-295 CNS = system: SF-295 CNS
SK-MEL-28 melanoma = system: SK-MEL-28 melanoma
SNB-19 CNS = system: SNB-19 CNS
NCI-H23 lung = system: NCI-H23 lung
HOP-92 NSCLC = system: HOP-92 NSCLC
UACC-257 melanoma = system: UACC-257 melanoma
NCI/ADR-RES ovarian = system: NCI/ADR-RES ovarian
HL-60(TB) leukemia = system: HL-60(TB) leukemia
MDA-MB-435 melanoma = system: MDA-MB-435 melanoma
SF-539 CNS = system: SF-539 CNS
TK-10 renal = system: TK-10 renal
OVCAR-8 ovarian = system: OVCAR-8 ovarian
UO-31 renal = system: UO-31 renal
MALME-3M melanoma = system: MALME-3M melanoma
A549 NSCLC = system: A549 NSCLC
K-562 leukemia = system: K-562 leukemia
EKVX NSCLC = system: EKVX NSCLC
U251 glioblastoma = system: U251 glioblastoma
MDA-MB-231 breast = system: MDA-MB-231 breast
786-0 renal = system: 786-0 renal
SN12C renal = system: SN12C renal
IGROV1 ovarian = system: IGROV1 ovarian
OVCAR-5 ovarian = system: OVCAR-5 ovarian
HOP-62 NSCLC = system: HOP-62 NSCLC
NCI-H460 NSCLC = system: NCI-H460 NSCLC
MDA-MB-468 breast = system: MDA-MB-468 breast

Q: COCCOc1cnc2ccn([C@H](C)c3nnc4c(F)cc(-c5cnn(C)c5)cn34)c(=O)c2c1 was tested. Which GI50 (NCI-H226 lung) did it give?
A: > 100 µM

Q: And the TGI (NCI-H226 lung)?
A: > 100 µM

Q: And the GI50 (A498 renal)?
A: > 100 µM

Q: What about the TGI (A498 renal) of the same molecule?
A: > 100 µM

Q: What about the GI50 (MCF7 breast) of the same molecule?
A: > 100 µM

Q: What about the TGI (MCF7 breast) of the same molecule?
A: > 100 µM

Q: And the GI50 (HT29 colon)?
A: > 100 µM

Q: What about the TGI (HT29 colon) of the same molecule?
A: > 100 µM

Q: What about the GI50 (NCI-H522 lung) of the same molecule?
A: > 100 µM

Q: What about the TGI (NCI-H522 lung) of the same molecule?
A: > 100 µM

Q: What about the GI50 (SR leukemia) of the same molecule?
A: 60.2 µM

Q: What about the TGI (SR leukemia) of the same molecule?
A: > 100 µM

Q: What about the GI50 (SK-MEL-5 melanoma) of the same molecule?
A: > 100 µM

Q: And the TGI (SK-MEL-5 melanoma)?
A: > 100 µM

Q: And the GI50 (DU-145 prostate)?
A: > 100 µM

Q: What about the TGI (DU-145 prostate) of the same molecule?
A: > 100 µM

Q: And the GI50 (SK-OV-3 ovarian)?
A: > 100 µM

Q: And the TGI (SK-OV-3 ovarian)?
A: > 100 µM

Q: And the GI50 (SK-MEL-2 melanoma)?
A: > 100 µM

Q: And the TGI (SK-MEL-2 melanoma)?
A: > 100 µM

Q: And the GI50 (SNB-75 CNS)?
A: > 100 µM

Q: And the TGI (SNB-75 CNS)?
A: > 100 µM

Q: What about the GI50 (KM12 colon) of the same molecule?
A: 24.5 µM

Q: What about the TGI (KM12 colon) of the same molecule?
A: > 100 µM

Q: And the GI50 (UACC-62 melanoma)?
A: 58.1 µM

Q: And the TGI (UACC-62 melanoma)?
A: > 100 µM

Q: What about the GI50 (HCT-116 colon) of the same molecule?
A: > 100 µM

Q: And the TGI (HCT-116 colon)?
A: > 100 µM

Q: What about the GI50 (HS 578T breast) of the same molecule?
A: > 100 µM

Q: And the TGI (HS 578T breast)?
A: > 100 µM

Q: What about the GI50 (OVCAR-4 ovarian) of the same molecule?
A: 98 µM

Q: What about the TGI (OVCAR-4 ovarian) of the same molecule?
A: > 100 µM

Q: What about the GI50 (LOX IMVI melanoma) of the same molecule?
A: > 100 µM

Q: And the TGI (LOX IMVI melanoma)?
A: > 100 µM

Q: And the GI50 (CAKI-1 renal)?
A: > 56.9 µM

Q: And the TGI (CAKI-1 renal)?
A: > 100 µM

Q: What about the GI50 (SF-268 CNS) of the same molecule?
A: > 100 µM

Q: What about the TGI (SF-268 CNS) of the same molecule?
A: > 100 µM

Q: And the GI50 (COLO 205 colon)?
A: > 100 µM

Q: And the TGI (COLO 205 colon)?
A: > 100 µM

Q: And the GI50 (SW-620 colon)?
A: > 100 µM

Q: What about the TGI (SW-620 colon) of the same molecule?
A: > 100 µM

Q: What about the GI50 (SF-295 CNS) of the same molecule?
A: 85.2 µM

Q: What about the TGI (SF-295 CNS) of the same molecule?
A: > 100 µM

Q: And the GI50 (SK-MEL-28 melanoma)?
A: > 100 µM

Q: What about the TGI (SK-MEL-28 melanoma) of the same molecule?
A: > 100 µM

Q: What about the GI50 (SNB-19 CNS) of the same molecule?
A: > 100 µM

Q: What about the TGI (SNB-19 CNS) of the same molecule?
A: > 100 µM

Q: What about the GI50 (NCI-H23 lung) of the same molecule?
A: > 100 µM

Q: What about the TGI (NCI-H23 lung) of the same molecule?
A: > 100 µM

Q: What about the GI50 (HOP-92 NSCLC) of the same molecule?
A: > 100 µM

Q: What about the TGI (HOP-92 NSCLC) of the same molecule?
A: > 100 µM

Q: And the GI50 (UACC-257 melanoma)?
A: > 100 µM

Q: What about the TGI (UACC-257 melanoma) of the same molecule?
A: > 100 µM

Q: And the GI50 (NCI/ADR-RES ovarian)?
A: > 100 µM

Q: And the TGI (NCI/ADR-RES ovarian)?
A: > 100 µM

Q: And the GI50 (HL-60(TB) leukemia)?
A: > 100 µM

Q: And the TGI (HL-60(TB) leukemia)?
A: > 100 µM

Q: And the GI50 (MDA-MB-435 melanoma)?
A: > 100 µM

Q: What about the TGI (MDA-MB-435 melanoma) of the same molecule?
A: > 100 µM

Q: And the GI50 (SF-539 CNS)?
A: > 100 µM

Q: And the TGI (SF-539 CNS)?
A: > 100 µM

Q: What about the GI50 (TK-10 renal) of the same molecule?
A: > 100 µM

Q: What about the TGI (TK-10 renal) of the same molecule?
A: > 100 µM

Q: What about the GI50 (OVCAR-8 ovarian) of the same molecule?
A: > 100 µM

Q: And the TGI (OVCAR-8 ovarian)?
A: > 100 µM

Q: What about the GI50 (UO-31 renal) of the same molecule?
A: > 100 µM

Q: And the TGI (UO-31 renal)?
A: > 100 µM

Q: And the GI50 (MALME-3M melanoma)?
A: > 100 µM

Q: What about the TGI (MALME-3M melanoma) of the same molecule?
A: > 100 µM

Q: And the GI50 (A549 NSCLC)?
A: > 100 µM

Q: What about the TGI (A549 NSCLC) of the same molecule?
A: > 100 µM

Q: What about the GI50 (K-562 leukemia) of the same molecule?
A: > 100 µM

Q: And the TGI (K-562 leukemia)?
A: > 100 µM

Q: And the GI50 (EKVX NSCLC)?
A: > 100 µM

Q: What about the TGI (EKVX NSCLC) of the same molecule?
A: > 100 µM

Q: And the GI50 (U251 glioblastoma)?
A: > 100 µM

Q: And the TGI (U251 glioblastoma)?
A: > 100 µM

Q: What about the GI50 (MDA-MB-231 breast) of the same molecule?
A: > 100 µM

Q: What about the TGI (MDA-MB-231 breast) of the same molecule?
A: > 100 µM

Q: And the GI50 ([…]-0 renal)?
A: > 100 µM

Q: What about the TGI (786-0 renal) of the same molecule?
A: > 100 µM

Q: And the GI50 (SN12C renal)?
A: > 100 µM

Q: And the TGI (SN12C renal)?
A: > 100 µM

Q: What about the GI50 (IGROV1 ovarian) of the same molecule?
A: > 100 µM

Q: And the TGI (IGROV1 ovarian)?
A: > 100 µM

Q: What about the GI50 (OVCAR-5 ovarian) of the same molecule?
A: > 100 µM

Q: And the TGI (OVCAR-5 ovarian)?
A: > 100 µM

Q: And the GI50 (HOP-62 NSCLC)?
A: > 100 µM

Q: And the TGI (HOP-62 NSCLC)?
A: > 100 µM

Q: What about the GI50 (NCI-H460 NSCLC) of the same molecule?
A: > 100 µM

Q: What about the TGI (NCI-H460 NSCLC) of the same molecule?
A: > 100 µM

Q: And the GI50 (MDA-MB-468 breast)?
A: > 100 µM

Q: What about the TGI (MDA-MB-468 breast) of the same molecule?
A: > 100 µM
